Patent publication US10799501B2, “Combination of an inhibitor of PARP with an inhibitor of GSK-3 or DOT1L” (King's College London, priority 2015, dated 2020)

Columns and labels:
[1] = tested on: MLL-AF9 transformed cells; experiment: In vitro drug treatment of primary murine hematopoietic cells transformed by MLL-AF9 (RTTA); format: cell-based, mouse
Procedure: Transduction using concentrated viral supernatant expressing the oncogene of interest was carried out by centrifugation (spinoculation) at 800 g at 32° C. for 2 hours in the presence of 5 μg ml^-1 polybrene (Sigma-Aldrich). Cells were subsequently plated in 1% methylcellulose medium ([…]; Stem Cell Technologies) containing 20 ngml^-1 SCF, 10 ngml^-1 IL-3, 10 ngml^-1 IL-6 and 10 ngml^-1 granulocyte macrophage colony-stimulating factor (GM-CSF) and appropriate selection antibiotic. Colonies were counted after 7 days of culture and replated every 6-7 days at 5×103-1.5×10^4 cell density. Re-plating was performed weekly to generate primary cell lines for further analysis. After the third or fourth round of plating, cells were cultured in R20/20 medium (RPMI 1640, 20% FCS, 20% WEHI-conditioned medium, 2 mM L-glutamine, 100 U/ml penicillin, and 100 μg/ml streptomycin) supplemented with 20 ngml^-1 stem cell factor (SCF), 10 ngml^-1 interleukin (IL)-3, and 10 ngml^-1 IL-6 to establish cell lines. All recombinant murine cytokines were from PeprotechEC. […] Colonies were scored 6-7 days after plating. For other in vitro studies, mouse leukemic cells and primary AML cell lines were subjected to continuously Olaparib (1 μM) or LiCl (8 mM) treatment in liquid culture for whole duration as indicated in the figures or figure legends. For human leukemic cell lines, experiments were performed as described above with 5 μM Olaparib. Cells were cytospun onto a glass slide at 400 g for 5 minutes and then fixed for 10 minutes with 2% formaldehyde/0.2% glutaraldehyde (Sigma Aldrich). Cells were then washed with PBS, and then incubated at 37° C. for at least 2 hours with a staining solution (30 mM Citric Acid/Phosphate buffer, 5 mM K4Fe(CN)6, 5 mM K3Fe(CN)6, 150 mM NaCl, 2 mM MgCl2, 1 mg/ml X-Gal) (All reagents from Sigma-Aldrich)62. Cells were counted in at least 5 fields for each slide, for a total of over 100 cells. The percentage of senescent cells was calculated by the percentage of the number of blue cell in the field. Cells were cytospun onto a glass slide at 400 g for 5 minutes and then fixed for 30 minutes in 4% PFA and permeabilized and blocked in 0.8% Tx-100, 10% FBS/1% BSA (Sigma-Aldrich) in PBS for 15 min at room temperature. […] Cells were counted in at least 5 fields for each slide, for a total of over 100 cells per condition. […] Cells were counted in at least 5 fields for each slide, for a total of over 100 cells per condition. […] Cells were then washed in PBS and the differentiated cells were indicated by the deposition of dark blue insoluble formazan (NBT positive cells) and the percentage of differentiated cells were counted under microscopy. At least 200 cells were counted in most of the cases.

NB4-LR2 (PML-RARα) = experiment: Humanized xenograft: NSG mice transplanted with NB4-LR2 cells, Olaparib treatment; format: in vivo, mouse
Procedure: We established humanized models of AML1-ETO and PML-RARα leukemia in sub-lethally irradiated NOD/SCID/IL2Rg−/−(NSG, 1 dose 200 RADs) by transplanting 2×10^6 Kasumi (intra-femoral, IF) and 1×10^5 NB4-LR2 or 1×10^5 THP1 (intravenous, IV) cells. The day after the transplantation, mice were split into two groups and given intra-peritoneal injections of vehicle (10% HBC) or Olaparib (25 mg/kg in 10% HBC) daily for 2-4 weeks. The maximum tolerable dose was calculated by in vivo dose-response experiments. Mice were monitored daily until they developed symptoms of leukemia, when they were culled and bone marrow, spleen and liver harvested and analyzed by FACS. The engraftment of human donor cells was defined as human CD45/CD33 double positive by FACS.

ovarian cancer = conditions: untargeted population; cited from earlier work
[2] = NSG mice succumbed with NB4-LR2 driven disease, Olaparib 25 mg/kg i.p. daily

## O=C(c1cc(Cc2n[nH]c(=O)c3ccccc23)ccc1F)N1CCN(C(=O)C2CC2)CC1 [Olaparib, 4-[(3-[(4-cyclopropylcarbonyl)piperazin-4-yl]carbonyl)-4-fluorophenyl]methyl(2H)-phthalazin-1-one]
[1]; 1 uM Olaparib, methylcellulose 7 days
  impact on colony forming ability: little impact
[1]; PARPi treatment
  differentiation, G1 arrest, senescence, apoptosis effects: none of these effects were observed
[1]; PARPi treatment for 6 hours
  Rad51 recruitment to DNA damage sites (RAD51 foci): able to form RAD51 foci
NB4-LR2 (PML-RARα); [2]
  BM Engraftment (%): 40.27 ± 23.73%
  Disease Latency (days; median): 51 days
  Hematopoietic Liver Engraftment (%): 58.99 ± 27.07%
  Hematopoietic Spleen Engraftment (%): 33.39 ± 25.3%
  Liver: 2.415 ± 1.844 g
  Spleen: 0.5226 ± 0.5279 g
NB4-LR2 (PML-RARα); single agent, NB4-LR2 xenograft
  disease onset induced by ATRA-resistant APL cells: effectively suppress disease onset
Ovarian cancer
  overall survival benefit compared to chemotherapy: failed to show overall survival benefit
